In PubChem BioAssay (NCI):
Where “and” joins values, the source holds several entries; their conditions need not be identical. Equal values may be shown once.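 Exposure lasted 48 hours, with cells grown in 96-well plates and compounds tested at five concentrations. Abbreviation: GI50, concentration required for 50% inhibition of growth. TGI: concentration producing complete growth inhibition.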

Key:
Test in all cases: NCI-60 cell line screen, 48 h
ACHN renal = test system: ACHN renal
PC-3 prostate = test system: PC-3 prostate
U251 CNS = test system: U251 CNS
HOP-92 NSCLC = test system: HOP-92 NSCLC
HCC-2998 colon = test system: HCC-2998 colon
HOP-62 NSCLC = test system: HOP-62 NSCLC
NCI-H522 lung = test system: NCI-H522 lung
T-47D breast = test system: T-47D breast
MCF7 breast = test system: MCF7 breast
HL-60(TB) leukemia = test system: HL-60(TB) leukemia

| Structure (SMILES) | GI50 (ACHN renal) | GI50 (PC-3 prostate) | TGI (PC-3 prostate) | GI50 (U251 CNS) | TGI (U251 CNS) | GI50 (HOP-92 NSCLC) | TGI (HOP-92 NSCLC) | GI50 (HCC-2998 colon) | TGI (HCC-2998 colon) | GI50 (HOP-62 NSCLC) | TGI (HOP-62 NSCLC) | GI50 (NCI-H522 lung) | TGI (NCI-H522 lung) | GI50 (T-47D breast) | GI50 (MCF7 breast) | TGI (MCF7 breast) | TGI (ACHN renal) | GI50 (HL-60(TB) leukemia) | TGI (HL-60(TB) leukemia) | TGI (T-47D breast) |
| --- | --- | --- | --- | --- | --- | --- | --- | --- | --- | --- | --- | --- | --- | --- | --- | --- | --- | --- | --- | --- |
| COc1cc2c(c3oc(-c4ccc(O)cc4)c(O)c(=O)c13)CCC(C)(C)O2 | 0.145 µM | 1.17 µM | > 100 µM | 0.107 µM | 0.8 µM | 0.217 µM | 0.902 µM | 0.254 µM | 0.672 µM | 0.0712 µM | 0.165 µM | 0.0776 µM | 0.232 µM | 0.767 µM | 0.381 µM | > 100 µM |  |  |  |  |
| O=c1[nH]c2ccccc2n1C1CCNCC1 | > 100 µM | > 100 µM | > 100 µM | > 100 µM | > 100 µM |  |  | > 100 µM | > 100 µM | > 100 µM | > 100 µM | > 100 µM | > 100 µM | > 100 µM | > 100 µM | > 100 µM | > 100 µM | > 100 µM | > 100 µM | > 100 µM |
| COc1ccc(C2=NN(C(N)=S)C(c3ccc4c(c3)OCO4)C2)cc1 (stereo not given) | 3.58 µM | 4.33 µM | > 100 µM | 3.05 µM | 19.6 µM | 2.12 µM | 8.05 µM | 2.3 µM | 5.85 µM | 3.56 µM | > 100 µM | 2.4 µM | 16.8 µM | 3.22 µM | 3.23 µM | > 100 µM | > 100 µM |  |  | 41 µM |
| CC(=O)/C(=C\c1ccc(Cl)cc1)c1ccccc1 | 0.548 µM | 0.0852 µM | > 100 µM | 0.0842 µM | > 100 µM | 0.12 µM | > 26.2 µM | 0.328 µM | > 68.9 µM | 0.179 µM | > 100 µM | 0.0745 µM | 3.26 µM |  | 0.0375 µM | > 100 µM | > 70 µM | 0.0307 µM | 0.117 µM |  |
| O=C(N/N=C/c1ccc(Cl)cc1)c1ccc(NC(=O)c2ccccn2)cc1 | 19.1 µM | 17 µM | > 100 µM | 6.45 µM | 23.3 µM | 5.23 µM | 53.2 µM | > 100 µM | > 100 µM | 18.2 µM | 91.3 µM | 31.5 µM | > 100 µM | 21.2 µM | 47.3 µM | > 100 µM | 59.3 µM |  |  | > 100 µM |
| COc1ccc2c(c1)[C@@H](NC(C)=O)CCc1cc(OC)c(OC)c(OC)c1-2 |  |  | > 4.75 µM |  | 2.02 µM |  | > 9.04 µM |  | 13 µM |  | > 100 µM |  |  |  |  | > 100 µM | > 100 µM |  | < 0.0142 µM | > 100 µM |
| Cn1cc(C2NC(=O)c3ccccc3N2)c2ccccc21 (stereo not given) |  |  | 0.408 µM |  | 6.27 µM |  | > 100 µM |  | 7.45 µM |  | > 100 µM |  | 2.56 µM |  |  | 5.1 µM | > 92.8 µM |  | 0.485 µM |  |
| O=C(NCc1cn(Cc2cccc(Oc3ccccc3)c2)nn1)c1cccnc1Nc1ccc(F)cc1 | 11 µM | 20.4 µM | > 100 µM | 7.12 µM | > 100 µM | 10.7 µM | 43.5 µM | > 100 µM | > 100 µM | 6.02 µM | 32.5 µM | 10.8 µM | > 100 µM | 21.4 µM |  |  | > 100 µM | > 100 µM | > 100 µM | > 100 µM |
| CC(C)=CCC/C(C)=C/CC/C(C)=C/CSC[C@H](NC(=O)CCCCCN1CCN(C)CC1)C(=O)NC1CCCCCC1 | 1.75 µM | 1.89 µM | 4.31 µM | 1.73 µM | 3.19 µM | 2.3 µM | 8.39 µM | 1.84 µM | 3.61 µM | 4.42 µM | 19.3 µM |  |  | 2.22 µM | 2.12 µM | 4.79 µM | 3.21 µM | 1.98 µM | 4.14 µM | 6.45 µM |
| O=c1nc2n(-c3cccc(Cl)c3)c3ccc([N+](=O)[O-])cc3cc-2c(=O)[nH]1 | 5.32 µM | 6.01 µM | 15.3 µM | 2.63 µM | > 25 µM | 7.75 µM | 24.7 µM | 4.92 µM | 11 µM | 2.88 µM | 9.2 µM | 7.37 µM | 21.6 µM | 7.82 µM |  |  | 16 µM | 1.29 µM | > 25 µM | > 25 µM |
| COc1ccc(-c2csc3c2-n2cccc2C3=O)cc1 |  | 0.0317 µM | > 52.1 µM | 0.00887 µM | > 100 µM | 0.0919 µM | > 100 µM | 0.232 µM | 2.56 µM and 5.8 µM | 0.0986 µM | > 72 µM | 0.00234 µM and 0.0218 µM | 0.00998 µM and 0.0802 µM |  | 0.0945 µM | > 41.6 µM | > 90.9 µM | 0.00416 µM | 0.0185 µM and 0.0984 µM |  |
| O=c1c2ccccc2nc(-c2cccc([N+](=O)[O-])c2)n1O |  |  | 98.7 µM |  | > 100 µM |  | > 75.1 µM |  | > 100 µM |  | > 100 µM |  | > 88.8 µM |  |  | > 100 µM | > 100 µM |  |  | > 100 µM |
| O=C1C=C(Nc2ccccc2)c2ccccc2C1=O | 2.56 µM |  |  | 1.8 µM | 4.6 µM | 2.73 µM | 13.2 µM | 2.02 µM | 4.62 µM | 1.17 µM | 2.83 µM | 1.67 µM | 3.36 µM | 3.17 µM | 1.88 µM | 4.3 µM | 7.88 µM | 2.82 µM | 7.83 µM | 9.88 µM |
| CC1=C(CCCOC(=O)[C@H](N)CC(C)C)C2=C(C)C3(CC3)[C@@](C)(O)C(=O)C2=C1 |  | 2.43 µM | 44.1 µM | 2.53 µM | 13.7 µM | 0.759 µM | 3.33 µM | 1.78 µM | 4.49 µM | 1.61 µM | 5.42 µM | 2.69 µM | 11.1 µM | 1.84 µM | 2.73 µM | > 87.1 µM |  | 2.01 µM | 13.2 µM | 6.53 µM |
| O=C(CCCc1ccc(N(CCCl)CCCl)cc1)NCc1ccccc1 | 3.91 µM | 12.1 µM | 73.9 µM | 6.6 µM | 43.4 µM |  |  | 15.4 µM | 36.4 µM | 8 µM | 40.5 µM | 6.42 µM | 24.5 µM | 8.04 µM | 3.08 µM | > 100 µM | > 100 µM | 4.37 µM | 23.4 µM | 87.1 µM |
